Measurements published in patent US6943148B1, “Methods for delivering therapeutics across blood-barrier and for altering receptor binding affinity” (Nobex Corporation, priority 1998, dated 2005).
Where a SMILES comes first, the peptide text is derived from it. Where no end group is shown, it is not given here. The star is where a group is joined. X1 = CCCCCCCCCCCCCCCCOCCOCCOC(=O)*

Key:
μ-receptor = target: T1, μ-receptor (Rattus norvegicus, UniProt P33535); assay: % SPECIFIC BINDING; conditions: 0.1 µM
T1 construct: assessed for analgesic activity by rat paw-hot plate assay; from tissue; host or cells: whole living rat (in vivo)
From the text: Table printed on a drawing sheet, FIG.8
Head of the field: % […] BINDING
First copying reader's note: The title is printed as the top row inside the table frame and is given as the title, not as a grid row.

Sprague-Dawley rats = assay: Rat paw-hot plate test; type: in vivo; conditions: for Mean Analgesia as Compared with Morphine at 3 mg/Kg @ 5 min / Mean Analgesia as Compared with Morphine at 3 mg/Kg @ 30 min: hot plate 52° C., dose (mg/kg): Morphine 3, Enkephalin 20, Cetyl 5, DHA 20, Cholesterol 5, Linolenic 10; for analgesic effect as compared to morphine as a baseline: hot plate, time not stated, enkephalin 20 mg/kg
Protocol: Adult, male Sprague-Dawley rats weighing 150-175 g were obtained from Charles River Breeding Laboratories (Raleigh, NC) and used for all animal studies. Rats were housed in hanging wire-bottomed cages in a vivarium equipped with a 12:12 light:dark cycle and humidity was maintained between 45-65% with a room temperature of […]. Rats were provided Purina Rodent Chow and tap water ad libitum.
Met-enkephalin-lys SEQ ID NO: 49 and met-enkephalin-lys SEQ ID NO: 1 derivatives were assessed for analgesic activity by rat paw-hot plate assay. Rats were given an injection of naloxone at 0.5 mg/kg (s.c.) then administered a single administration of cetyl-enkephalin SEQ ID NO: 1 by the tail vein 10 minutes later at a dose of 5.0 mg/kg.
In a separate study, rats were administered cetyl-enkephalin SEQ ID NO: 1 (5.0 mg/kg, i.v.) or clonidine (0.125 mg/kg, i.v.).
The latency to rat paw withdrawal from the hot plate was measured by a Hot Plate Analgesia Meter (Harvard Apparatus Ltd., Kent, England). The temperature of the hot plate was set and calibrated at 52° C. and rats were removed from the heat stimulus by 36 seconds after placement. Latency trials were terminated when the animal was either licking a hind paw or initiating a jump from the plate. Baseline measurements were collected 1 hour prior to drug administration and at various times post-injection, dependent upon the study conducted. All hot plate testing was terminated by 1 hour after drug dosing.

[1] = Extraction and detection of enkephalin conjugates from the brain of dosed rats (HPLC); type: in vivo; conditions: rat brain removed 10 minutes after dosing; 5 mg/kg cetyl-PEG2-enkephalin; compared with standard peak
Protocol: The following procedure was used to identify the presence of conjugate from the brain specimen of animals dosed with 5 mg/kg cetyl-PEG2-enkephalin SEQ ID NO: 1.
After 10 minutes of dosing, the brain of the animal was perfused with 1.5% triflouroacetic acid in PBS solution, and the brain was removed and frosen at −70° C. The brain was homogenized with 1 mL of 1.5% triflouroacetic acid in PBS solution and the homogenate was extracted with acetonitrile/isopropanol solution. The extract was treated with saturated sodium chloride solution and frozen at −20° C. for 2 hours. The organic layer was isolated and centrifuged at 4000 RPM. The supernatant was evaporated and the resulting residue was reconstituted in acetonitrile/isopropanol/water mixture. The reconstituted solution was analyzed by HPLC using a gradient of 10 to 100% isopropanol/water (0.1% trifloiroacetic acid) on a C-18 column. The presence and the concentration of cetyl-PEG2-enkephalin SEQ ID NO: 1 conjugate in the extract were measured by comparing the retention time and the peak area of standard solution under the same analytical condition.

T1 sequence (P33535 whole entry, looked up): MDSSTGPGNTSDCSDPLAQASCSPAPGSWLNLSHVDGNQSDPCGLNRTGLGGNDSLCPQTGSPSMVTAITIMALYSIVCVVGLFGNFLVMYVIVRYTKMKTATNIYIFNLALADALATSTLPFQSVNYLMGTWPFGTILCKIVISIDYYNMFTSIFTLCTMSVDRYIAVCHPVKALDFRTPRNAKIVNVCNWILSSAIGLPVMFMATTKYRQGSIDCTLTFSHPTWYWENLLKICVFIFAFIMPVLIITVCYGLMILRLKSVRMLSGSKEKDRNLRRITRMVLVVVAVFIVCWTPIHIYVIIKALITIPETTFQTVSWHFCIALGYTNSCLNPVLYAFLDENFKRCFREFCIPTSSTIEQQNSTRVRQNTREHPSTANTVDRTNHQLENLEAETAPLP

| Compound | % SPECIFIC BINDING (μ-receptor) [%] | Mean Analgesia as Compared with Morphine at 3 mg/Kg @ 5 min (Sprague-Dawley rats) [%] | Mean Analgesia as Compared with Morphine at 3 mg/Kg @ 30 min (Sprague-Dawley rats) [%] | also measured |
| --- | --- | --- | --- | --- |
| PALMITATE-PEG3-ENK (SEQ ID NO: 1) [PALM-ENK] | 76 |  |  |  |
| CHOLESTEROL-PEG3-ENK (SEQ ID NO: 1) (YGGFMK; also: cholesterol-PEG3 conjugate, site not given here) [CHOL-ENK] | 95 |  |  |  |
| Met enkephalin-lys (YGGFMK) [reference compound] |  | 0 | 0 | analgesic effect as compared to morphine as a baseline (Sprague-Dawley rats): 0%; Presence of conjugate peak in brain extract (HPLC) [1]: neither the vehicle (FIG. 5C) nor the unconjugated enkephalin SEQ ID NO: 49 (FIG. 5D) showed a corresponding peak |
| CN1CC[C@]23c4c5ccc(O)c4O[C@H]2[C@@H](O)C=C[C@H]3[C@H]1C5 [Morphine, reference compound] |  | 100 | 100 |  |
| CCCCCCCCCCCCCCCCOCCOCCOC(=O)NCCCC[C@H](NC(=O)[C@H](CCSC)NC(=O)[C@H](Cc1ccccc1)NC(=O)CNC(=O)CNC(=O)[C@@H](N)Cc1ccc(O)cc1)C(=O)O [Cetyl-PEG-ENK, CETYL MET-ENKEPHALIN-LYS] (H-YGGFMK(X1)-OH) |  |  |  | Presence of conjugate peak in brain extract (HPLC) [1]: actually present in the brain exact |
| CETYL-PEG3-ENK (SEQ ID NO: 1) (YGGFMK; also: cetyl-PEG3 conjugate, site not given here) [CETYL-TEG-ENK] | 100 |  |  |  |
| DHA MET-ENKEPHALIN-LYS [DHA-PEG-ENK] |  | 130 | 67 | analgesic effect as compared to morphine as a baseline (Sprague-Dawley rats): 130% |
| DHA-PEG2-ENK (SEQ ID NO: 1) (YGGFMK; also: DHA-PEG2 conjugate, site not given here) [DHA-ENK] | 63 |  |  |  |
| CETYL-PEG2-ENK (SEQ ID NO: 1) (YGGFMK; also: cetyl-PEG2 conjugate, site not given here) [CETYL-ENK] | 100 |  |  |  |
| LINOLEIC MET-ENKEPHALIN-LYS [Linolenic-PEG-ENK] |  | 77 | 73 |  |
